Results published in US20080063668A1, “Nitroimidazole and terconazole composition and method” (priority 2006, published 2008).

How the values were obtained:
[1] = system: Gardnerella vaginalis ATCC 14018; test: Inhibition of bacteria growth, drug dilution tubes, anaerobic; type: cell-based; parameters: key: (+) for growth; (−) for no growth; (±) for suboptimal growth after an initial observation of growth
Method: Serial dilutions of tinidazole and terconazole were prepared by adding measured amounts of each substance to water (both individually and in combination). Seven bacterial organisms that are common pathogens in bacterial vaginosis were grown anaerobically in the medium as listed in Table 4 under a N2/H2/CO2 (85:5:10) head space atmosphere. [table] These cultures were diluted to a 0.5 McFarland standard prior to inoculation of drug dilution tubes. One (1) mL of the 0.5 McFarland preparation was inoculated to an anaerobically prepared test tube containing 0.8 mL of Difco anaerobic medium (DAMM) and 0.2 mL of appropriate diluted antimicrobial or antimicrobial combination for a total of 2 mL. The inoculated tubes were then incubated at 37° C. and monitored daily for growth. Growth was scored with a (+) for growth, (−) for no growth, and (±) for suboptimal growth after an initial observation of growth. Tinidazole is abbreviated as TNZ and terconazole is abbreviated as TER in Tables 5 through 11.

[2] = Solubilization of terconazole in water with acid (crystal observation); type: physicochemical
Method: Weighed amounts of terconazole were added to separate containers including an acid in water, applying heat, if necessary, to dissolve the terconazole. The amount of acid was selected to be about equimolar with the amount of terconazole added. After the terconazole was dissolved, each solution was cooled to about 4° C. to force crystallization of the terconazole. If crystals were not observed upon cooling, seed crystals of terconazole were then added and the solutions were again cooled to about 4° C. for about 72 hours. After allowing for crystal formation in all solutions, the solutions were allowed to warm to room temperature (about 20° C.).
Table 2 includes dissolution data for a number of compositions comprising varying amounts of terconazole and various acids. The data in Table 2 clearly indicate that solutions having a terconazole concentration of at least about 3 percent by weight and free from terconazole crystals at 20° C. were obtained utilizing tartaric acid and malic acid.

[3] = neutral pH; cited from earlier work
[4] = Solubilization of tinidazole in water with acid (crystal observation); type: physicochemical; conditions: 20° C., at least 14 days
Method: Weighed amounts of tinidazole were added to separate containers including an acid in water, applying heat, if necessary, to dissolve the tinidazole. The amount of acid was selected to be about equimolar with the amount of tinidazole added. After the tinidazole was dissolved, each solution was cooled to about 2° C. to force crystallization of some of the tinidazole. If crystals were not observed upon cooling, seed crystals of tinidazole were added. After crystal formation was observed, the solutions were allowed to warm to room temperature (about 20° C.). […] The absence of crystals after 14 days indicates effective dissolution of tinidazole. Table 1 includes dissolution data for a number of compositions comprising varying amounts of tinidazole and various acids. The data in Table 1 clearly indicate that solutions having a tinidazole concentration of at least about 0.5 percent by weight and free from tinidazole crystals at 20° C. were obtained utilizing citric acid, hydrochloric acid, acetic acid, tartaric acid, and malic acid. Tinidazole concentrations as high as about 0.55 percent by weight were obtained utilizing tartaric acid and citric acid.

[5] = Combined solubilization of tinidazole and terconazole in water with citric acid; type: physicochemical; conditions: 20° C., terconazole about 0.8 percent by weight
Method: Weighed amounts of tinidazole and terconazole were added to separate containers including citric acid in water, applying heat, if necessary, to dissolve the tinidazole and terconazole. The amount of citric acid was selected to be about equimolar with the molar amount of tinidazole and terconazole added. After the tinidazole and terconazole was dissolved, each solution was cooled to about 4° C. to force crystallization of the tinidazole and terconazole. If crystals were not observed upon cooling, seed crystals of tinidazole were added and the solutions were again cooled to about 4° C. […] The absence of crystals after 14 days indicates effective dissolution of tinidazole and terconazole. Table 3 includes dissolution data for a number of compositions comprising varying amounts of tinidazole, terconazole and citric acid. The data in Table 3 clearly indicate that solutions having a tinidazole concentration of at least about 0.6 percent by weight and a terconazole concentration of about 0.8 percent by weight and free from crystals at 20° C. were obtained utilizing citric acid.

CC(C)N1CCN(c2ccc(OCC3COC(Cn4cncn4)(c4ccc(Cl)cc4Cl)O3)cc2)CC1 (stereo not drawn) [TER, cis-1-[p[[2-(2,4-dichlorophenyl)-2-(1 H-1,2,4-triazol-1-ylmethyl)-1,3-dioxolan-4-yl]methoxy]phenyl]-4-isopropylpiperazine]
(−): growth ([1]; TER 200 μg/ml, DAY 1) | growth ([1]; TER 400 μg/ml, DAY 1) | growth ([1]; TER 400 μg/ml, DAY 2) | growth ([1]; TER 400 μg/ml, DAY 3) | growth ([1]; TER 400 μg/ml, DAY 4) | growth ([1]; TER 400 μg/ml, DAY 5) | growth ([1]; TER 800 μg/ml, DAY 1) | growth ([1]; TER 800 μg/ml, DAY 2) | growth ([1]; TER 800 μg/ml, DAY 3) | growth ([1]; TER 800 μg/ml, DAY 4) | growth ([1]; TER 800 μg/ml, DAY 5)
(+): growth ([1]; TER 3.1 μg/ml, DAY 1) | growth ([1]; TER 3.1 μg/ml, DAY 2) | growth ([1]; TER 3.1 μg/ml, DAY 3) | growth ([1]; TER 3.1 μg/ml, DAY 4) | growth ([1]; TER 3.1 μg/ml, DAY 5) | growth ([1]; TER 6.2 μg/ml, DAY 1) | growth ([1]; TER 6.2 μg/ml, DAY 2) | growth ([1]; TER 6.2 μg/ml, DAY 3) | growth ([1]; TER 6.2 μg/ml, DAY 4) | growth ([1]; TER 6.2 μg/ml, DAY 5) | growth ([1]; TER 12.5 μg/ml, DAY 1) | growth ([1]; TER 12.5 μg/ml, DAY 2) | growth ([1]; TER 12.5 μg/ml, DAY 3) | growth ([1]; TER 12.5 μg/ml, DAY 4) | growth ([1]; TER 12.5 μg/ml, DAY 5) | growth ([1]; TER 25 μg/ml, DAY 1) | growth ([1]; TER 25 μg/ml, DAY 2) | growth ([1]; TER 25 μg/ml, DAY 3) | growth ([1]; TER 25 μg/ml, DAY 4) | growth ([1]; TER 25 μg/ml, DAY 5) | growth ([1]; TER 50 μg/ml, DAY 1) | growth ([1]; TER 50 μg/ml, DAY 2) | growth ([1]; TER 50 μg/ml, DAY 3) | growth ([1]; TER 50 μg/ml, DAY 4) | growth ([1]; TER 50 μg/ml, DAY 5) | growth ([1]; TER 100 μg/ml, DAY 1) | growth ([1]; TER 100 μg/ml, DAY 2) | growth ([1]; TER 100 μg/ml, DAY 3) | growth ([1]; TER 100 μg/ml, DAY 4) | growth ([1]; TER 100 μg/ml, DAY 5) | growth ([1]; TER 200 μg/ml, DAY 2) | growth ([1]; TER 200 μg/ml, DAY 3) | growth ([1]; TER 200 μg/ml, DAY 4) | growth ([1]; TER 200 μg/ml, DAY 5)
substantially insoluble: solubility in water (in words) [3]
at least 3 percent by weight: terconazole concentration of solutions free from terconazole crystals ([2]; 20° C., about 14 days, tartaric acid and malic acid)
2.4 percent by weight: terconazole solubilized ([2]; citric acid, separate study)

CCS(=O)(=O)CCn1c([N+](=O)[O-])cnc1C [TNZ, 1-[2-(ethylsulfonyl)ethyl]-2-methyl-5-nitroimidazole]
about 0.55 percent by weight: tinidazole concentration of solutions free from tinidazole crystals ([4]; tartaric acid and citric acid)
(−): growth ([1]; TNZ 7.8 μg/ml, DAY 1) | growth ([1]; TNZ 15.6 μg/ml, DAY 1) | growth ([1]; TNZ 31.3 μg/ml, DAY 1) | growth ([1]; TNZ 31.3 μg/ml, DAY 2) | growth ([1]; TNZ 31.3 μg/ml, DAY 3) | growth ([1]; TNZ 31.3 μg/ml, DAY 4) | growth ([1]; TNZ 31.3 μg/ml, DAY 5) | growth ([1]; TNZ 62.5 μg/ml, DAY 1) | growth ([1]; TNZ 62.5 μg/ml, DAY 2) | growth ([1]; TNZ 62.5 μg/ml, DAY 3) | growth ([1]; TNZ 62.5 μg/ml, DAY 4) | growth ([1]; TNZ 62.5 μg/ml, DAY 5) | growth ([1]; TNZ 125 μg/ml, DAY 1) | growth ([1]; TNZ 125 μg/ml, DAY 2) | growth ([1]; TNZ 125 μg/ml, DAY 3) | growth ([1]; TNZ 125 μg/ml, DAY 4) | growth ([1]; TNZ 125 μg/ml, DAY 5) | growth ([1]; TNZ 250 μg/ml, DAY 1) | growth ([1]; TNZ 250 μg/ml, DAY 2) | growth ([1]; TNZ 250 μg/ml, DAY 3) | growth ([1]; TNZ 250 μg/ml, DAY 4) | growth ([1]; TNZ 250 μg/ml, DAY 5) | growth ([1]; TNZ 500 μg/ml, DAY 1) | growth ([1]; TNZ 500 μg/ml, DAY 2) | growth ([1]; TNZ 500 μg/ml, DAY 3) | growth ([1]; TNZ 500 μg/ml, DAY 4) | growth ([1]; TNZ 500 μg/ml, DAY 5)
at least 0.5 percent by weight: tinidazole concentration of solutions free from tinidazole crystals ([4]; citric acid, hydrochloric acid, acetic acid, tartaric acid, and malic acid, about equimolar)
at least 0.6 percent by weight: tinidazole concentration of solutions free from crystals [5]
(+): growth ([1]; TNZ 2 μg/ml, DAY 1) | growth ([1]; TNZ 2 μg/ml, DAY 2) | growth ([1]; TNZ 2 μg/ml, DAY 3) | growth ([1]; TNZ 2 μg/ml, DAY 4) | growth ([1]; TNZ 2 μg/ml, DAY 5) | growth ([1]; TNZ 3.9 μg/ml, DAY 1) | growth ([1]; TNZ 3.9 μg/ml, DAY 2) | growth ([1]; TNZ 3.9 μg/ml, DAY 3) | growth ([1]; TNZ 3.9 μg/ml, DAY 4) | growth ([1]; TNZ 3.9 μg/ml, DAY 5) | growth ([1]; TNZ 7.8 μg/ml, DAY 2) | growth ([1]; TNZ 7.8 μg/ml, DAY 3) | growth ([1]; TNZ 7.8 μg/ml, DAY 4) | growth ([1]; TNZ 7.8 μg/ml, DAY 5) | growth ([1]; TNZ 15.6 μg/ml, DAY 2) | growth ([1]; TNZ 15.6 μg/ml, DAY 3) | growth ([1]; TNZ 15.6 μg/ml, DAY 4) | growth ([1]; TNZ 15.6 μg/ml, DAY 5)
about 0.45 percent by weight: solubility in water [3]
